ChEMBL document CHEMBL5352497, “Aromatic hydrazides: A potential solution for Acinetobacter baumannii infections” (Eur J Med Chem, 2023)
Values after ≈ are worked out from the molar mass of the structure shown.

Key:
[1] = Hemolytic activity in mouse RBC at 8 ug/ml incubated for 1 hr; type: toxicity, cell-based, Erythrocyte; conditions: red blood cells (erythrocytes), at 8 µg/mL, read-out: Activity
Erythrocyte = assay: Hemolytic activity in mouse RBC at 32 ug/ml incubated for 1 hr; type: toxicity, cell-based; conditions: erythrocyte, 1 h, dose 32 µg/ml
HEK293 = assay: Cytotoxicity against HEK293 cells at 8 ug/ml; type: toxicity, cell-based; conditions: human, dose 8 µg/ml
Acinetobacter baumannii [2] = assay: Antibacterial activity against Acinetobacter baumannii ATCC 19606; type: functional
Pseudomonas aeruginosa = assay: Antibacterial activity against Pseudomonas aeruginosa ATCC 27853; type: functional
Acinetobacter baumannii [3] = assay: Antibacterial activity against Acinetobacter baumannii BAA1605; type: functional
Bacillus anthracis = assay: Antibacterial activity against Bacillus anthracis Sterne F32; type: functional
Salmonella enterica = assay: Antibacterial activity against Salmonella enterica ATCC 14028; type: functional
[4] = system: Staphylococcus epidermidis; assay: Antibacterial activity against Staphylococcus epidermidis ATCC 12228; type: functional
Escherichia coli = assay: Antibacterial activity against Escherichia coli MC1061; type: functional
Klebsiella pneumoniae = assay: Antibacterial activity against Klebsiella pneumoniae ATCC 27736; type: functional
Staphylococcus aureus = assay: Antibacterial activity against Staphylococcus aureus ATCC 25923; type: functional
Enterobacter cloacae = assay: Antibacterial activity against Enterobacter cloacae ATCC 13047; type: functional

| SMILES | hemolysis at 1 h, 8 ug/ml [1] [%] | Activity (Erythrocyte) | Activity (HEK293) | MIC (Acinetobacter baumannii [2]) [µg/mL] | MIC (Pseudomonas aeruginosa) [µg/mL] | MIC (Acinetobacter baumannii [3]) [µg/mL] | MIC (Bacillus anthracis) [µg/mL] | MIC (Salmonella enterica) [µg/mL] | MIC [4] [µg/mL] | MIC (Escherichia coli) [µg/mL] | MIC (Klebsiella pneumoniae) [µg/mL] | MIC (Staphylococcus aureus) [µg/mL] | MIC (Enterobacter cloacae) [µg/mL] |
| --- | --- | --- | --- | --- | --- | --- | --- | --- | --- | --- | --- | --- | --- |
| O=C(NNc1ccc(Cl)cc1)c1cnc2ccccc2n1 | < 10 | Non-Toxic | Non-Toxic | – | – | – | – | – | – | – | – | – | – |
| O=C(NNc1ccc(Cl)cc1)c1nc(F)ccc1F | < 10 | Non-Toxic | Non-Toxic | – | – | – | – | – | – | – | – | – | – |
| O=C(NNc1cccc(F)c1)c1ccc(F)cc1F | < 10 | Non-Toxic | Non-Toxic | – | – | – | – | – | – | – | – | – | – |
| O=C(NNc1ccc(Cl)cc1)c1cnccn1 | < 10 | Non-Toxic | Non-Toxic | – | – | – | – | – | – | – | – | – | – |
| COc1cccc(NNC(=O)c2ccc(F)cn2)c1 | < 10 | Non-Toxic | Non-Toxic | 0.5 (≈ 1.91 µM) | > 64 | 0.5 (≈ 1.91 µM) | > 64 | > 64 | 64 (≈ 245 µM) | > 64 | > 64 | > 64 | > 64 |
| O=C(NNC1CCCCC1)c1ccc(F)cc1F | < 10 | Non-Toxic | Non-Toxic | – | – | – | – | – | – | – | – | – | – |
| O=C(NNc1ccc(Cl)cc1)c1cccnc1 | < 10 | Non-Toxic | Non-Toxic | – | – | – | – | – | – | – | – | – | – |
| O=C(NNc1ccc(Cl)cc1)c1ccccc1 | < 10 | Non-Toxic | Non-Toxic | 0.25 (≈ 1.01 µM) | > 64 | 0.5 (≈ 2.03 µM) | > 64 | 64 (≈ 259 µM) | 64 (≈ 259 µM) | 16 (≈ 64.9 µM) | 16 (≈ 64.9 µM) | 64 (≈ 259 µM) | 16 (≈ 64.9 µM) |
| O=C(NNc1cccc(F)c1)c1ncc(F)cc1F | < 10 | Non-Toxic | Non-Toxic | – | – | – | – | – | – | – | – | – | – |
| O=C(NNc1cccc(F)c1)c1ccccn1 | < 10 | Non-Toxic | Non-Toxic | – | – | – | – | – | – | – | – | – | – |
| O=C(NNc1cccc(F)c1)c1cccnc1 | < 10 | Non-Toxic | Non-Toxic | – | – | – | – | – | – | – | – | – | – |
| O=C(NNc1ccc(F)cc1)c1ccc(F)cn1 | < 10 | Non-Toxic | Non-Toxic | 0.5 (≈ 2.01 µM) | > 64 | 0.25 (≈ 1 µM) | > 64 | 64 (≈ 257 µM) | > 64 | 64 (≈ 257 µM) | 64 (≈ 257 µM) | > 64 | 64 (≈ 257 µM) |
| CCOC(=O)CNNC(=O)c1ccc2ccccc2n1 | < 10 | Non-Toxic | Non-Toxic | > 64 | > 64 | > 64 | > 64 | > 64 | > 64 | > 64 | > 64 | > 64 | > 64 |
| O=C(NNc1cccc(F)c1)c1ccco1 | < 10 | Non-Toxic | Non-Toxic | – | – | – | – | – | – | – | – | – | – |
| O=C(NNc1cccc(F)c1)c1ccccc1 | < 10 | Non-Toxic | Non-Toxic | – | – | – | – | – | – | – | – | – | – |
| CCOC(=O)CNNC(=O)c1ccccn1 | < 10 | Non-Toxic | Non-Toxic | – | – | – | – | – | – | – | – | – | – |
| O=C(NNC1CCCCC1)c1cnccn1 | < 10 | Non-Toxic | Non-Toxic | – | – | – | – | – | – | – | – | – | – |
| CCC(=O)NNc1cccc(F)c1 | < 10 | Non-Toxic | Non-Toxic | – | – | – | – | – | – | – | – | – | – |
| O=C(NNc1cccc(Cl)c1)c1ccccn1 | < 10 | Non-Toxic | Non-Toxic | 2 (≈ 8.07 µM) | > 64 | 1 (≈ 4.04 µM) | > 64 | 16 (≈ 64.6 µM) | > 64 | 4 (≈ 16.1 µM) | 16 (≈ 64.6 µM) | > 64 | 4 (≈ 16.1 µM) |
| O=C(NNc1ccc(Cl)cc1)c1cc2ccccc2[nH]1 | < 10 | Non-Toxic | Non-Toxic | 0.5 (≈ 1.75 µM) | > 64 | 0.25 (≈ 0.875 µM) | > 64 | > 64 | > 64 | > 64 | > 64 | > 64 | > 64 |
| COc1ccc(NNC(=O)c2ccc(F)cn2)cc1 | < 10 | Non-Toxic | Non-Toxic | 1 (≈ 3.83 µM) | > 64 | 0.5 (≈ 1.91 µM) | > 64 | > 64 | > 64 | > 64 | > 64 | > 64 | > 64 |

| SMILES | hemolysis at 1 h, 8 ug/ml [1] [%] | Activity (Erythrocyte) | Activity (HEK293) | MIC (Acinetobacter baumannii [2]) [µg/mL] | MIC (Pseudomonas aeruginosa) [µg/mL] | MIC (Acinetobacter baumannii [3]) [µg/mL] | MIC (Bacillus anthracis) [µg/mL] | MIC (Salmonella enterica) [µg/mL] | MIC [4] [µg/mL] | MIC (Escherichia coli) [µg/mL] | MIC (Klebsiella pneumoniae) [µg/mL] | MIC (Staphylococcus aureus) [µg/mL] | MIC (Enterobacter cloacae) [µg/mL] |
| --- | --- | --- | --- | --- | --- | --- | --- | --- | --- | --- | --- | --- | --- |
| O=C(NNc1ccc(Cl)cc1)c1cccc(F)n1 | < 10 | Non-Toxic | Non-Toxic | ≤ 0.125 | > 64 | ≤ 0.125 | > 64 | 16 (≈ 60.2 µM) | > 64 | 16 (≈ 60.2 µM) | 16 (≈ 60.2 µM) | > 64 | 16 (≈ 60.2 µM) |
| O=C(NNc1cccc(F)c1)c1cnccn1 | < 10 | Non-Toxic | Non-Toxic | – | – | – | – | – | – | – | – | – | – |
| CCOC(=O)CNNC(=O)c1cnccn1 | < 10 | Non-Toxic | Non-Toxic | – | – | – | – | – | – | – | – | – | – |
| O=C(NNc1cccc(F)c1)c1ccc(Br)cn1 | < 10 | Non-Toxic | Non-Toxic | – | – | – | – | – | – | – | – | – | – |
| O=C(NNc1ccc(Cl)cc1)c1ncc(F)cc1F | < 10 | Non-Toxic | Non-Toxic | – | – | – | – | – | – | – | – | – | – |
| O=C(NNc1cccc(F)c1)c1ccc(F)cn1 | < 10 | Non-Toxic | Non-Toxic | 0.5 (≈ 2.01 µM) | > 64 | 0.5 (≈ 2.01 µM) | > 64 | > 64 | > 64 | 64 (≈ 257 µM) | > 64 | > 64 | > 64 |
| CCOC(=O)CNNC(=O)c1ccc(F)cn1 | < 10 | Non-Toxic | Non-Toxic | – | – | – | – | – | – | – | – | – | – |
| O=C(NNc1cccc(F)c1)c1cnc2ccccc2n1 | < 10 | Non-Toxic | Non-Toxic | – | – | – | – | – | – | – | – | – | – |
| O=C(NNc1cccc(F)c1)c1cccc(Br)n1 | < 10 | Non-Toxic | Non-Toxic | – | – | – | – | – | – | – | – | – | – |
| O=C(NNc1cccc(F)c1)c1cccc(F)n1 | < 10 | Non-Toxic | Non-Toxic | – | – | – | – | – | – | – | – | – | – |
| O=C(NNC1CCCCC1)c1cccnc1 | < 10 | Non-Toxic | Non-Toxic | – | – | – | – | – | – | – | – | – | – |
| O=C(NNC1CCCCC1)c1ccc2ccccc2n1 | < 10 | Non-Toxic | Non-Toxic | > 64 | > 64 | > 64 | > 64 | > 64 | > 64 | 64 (≈ 238 µM) | > 64 | > 64 | > 64 |
| O=C(NNc1ccc(Cl)cc1)c1ccccn1 | < 10 | Non-Toxic | Non-Toxic | 0.25 (≈ 1.01 µM) | > 64 | 0.25 (≈ 1.01 µM) | > 64 | 64 (≈ 258 µM) | > 64 | 16 (≈ 64.6 µM) | 64 (≈ 258 µM) | > 64 | 64 (≈ 258 µM) |
| O=C(NNc1ccc(Cl)cc1)c1ccc2ccccc2n1 | < 10 | Non-Toxic | Non-Toxic | 0.5 (≈ 1.68 µM) | > 64 | 0.5 (≈ 1.68 µM) | > 64 | > 64 | > 64 | 16 (≈ 53.7 µM) | > 64 | > 64 | > 64 |
| O=C(NNc1ccc(Cl)cc1)c1ccc(F)cc1F | < 10 | Non-Toxic | Non-Toxic | 0.25 (≈ 0.884 µM) | > 64 | 0.25 (≈ 0.884 µM) | > 64 | > 64 | > 64 | 16 (≈ 56.6 µM) | > 64 | > 64 | 16 (≈ 56.6 µM) |
| C=CC(=O)NNc1ccc(Cl)cc1 | < 10 | Non-Toxic | Non-Toxic | 0.25 (≈ 1.27 µM) | > 64 | 0.25 (≈ 1.27 µM) | > 64 | 16 (≈ 81.4 µM) | 64 (≈ 325 µM) | 16 (≈ 81.4 µM) | 16 (≈ 81.4 µM) | 64 (≈ 325 µM) | 16 (≈ 81.4 µM) |
| CCOC(=O)CNNC(=O)c1ccc(F)cc1F | < 10 | Non-Toxic | Non-Toxic | – | – | – | – | – | – | – | – | – | – |
| O=C(NNc1cccc(F)c1)c1nc(F)ccc1F | < 10 | Non-Toxic | Non-Toxic | – | – | – | – | – | – | – | – | – | – |
| CCOC(=O)CNNC(=O)c1cccc(F)n1 | < 10 | Non-Toxic | Non-Toxic | – | – | – | – | – | – | – | – | – | – |
| COc1cccc(NNC(=O)c2ccccn2)c1 | < 10 | Non-Toxic | Non-Toxic | – | – | – | – | – | – | – | – | – | – |
| O=C(NNc1cccc(F)c1)c1cc2ccccc2[nH]1 | < 10 | Non-Toxic | Non-Toxic | – | – | – | – | – | – | – | – | – | – |
